Measurements reported in patent publication US9957289B2, “Compounds and methods for treating bacterial infections” (Washington University, priority 2013, dated 2018).
In brackets after ≈: the same amount, converted by molar mass. Entries after “also recorded” stand apart in the source; their conditions may differ.

Experiments:
[1] = Rat pharmacokinetics, IV and PO; type: in vivo
Description: Mannoside compounds FIM-4269, FIM-5240, FIM-5254, FIM-1CJ82 and FIM-1CJ66 (FIG. 3) were evaluated for pharmacokinetics in the rat. Mannosides were dose IV at 3 mg/kg and PO at 10 mg/kg. Urine and plasma were collected at 15 min, 30 min, 1 hour, 2 hours, 4 hours and 8 hours.

FimH [2] = target: T1, FimH (Escherichia coli, UniProt P08191); assay: Hemagglutination inhibition (HAI) assay, guinea pig red blood cells; type: cell-based, E. coli; conditions: concentration inhibiting >90% hemagglutination of guinea pig red blood cells
T1 construct: endogenous in cells; host or cells: type 1 piliated uropathogenic E. coli (UPEC)
T1 sequence (P08191 22-300): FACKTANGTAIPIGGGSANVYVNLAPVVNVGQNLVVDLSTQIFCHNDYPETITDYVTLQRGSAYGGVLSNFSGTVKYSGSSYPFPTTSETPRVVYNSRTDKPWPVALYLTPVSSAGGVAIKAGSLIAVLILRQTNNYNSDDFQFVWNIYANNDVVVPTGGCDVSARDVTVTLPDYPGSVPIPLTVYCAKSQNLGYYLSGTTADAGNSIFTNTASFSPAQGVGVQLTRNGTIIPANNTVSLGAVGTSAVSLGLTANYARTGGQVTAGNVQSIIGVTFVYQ
Description: FIG. 15 depicts the hemagglutination assay (HA) used to assess the compounds' ability to block FimH mediated binding. The HAI titer quantitatively measure the effect of inhibitors on blocking the FimH-mediated hemagglutination (HA) of guinea pig red blood cell infected with E. coli.
In some embodiments, activity of the compound is measured using hemmagglutination titer of guinea pig red blood cells. Hemagglutination of guinea pig red blood cells by type1 piliated UPEC is dependent upon FimH mannose binding ability and serial dilutions allow a quantitative analysis.
Hemagglutination assays for mannose-sensitive agglutination of guinea pig red blood cells were performed as previously described.

UTI89 [3] = assay: Mouse model of acute UTI, bladder bacterial CFU after UTI89 infection; type: in vivo, Escherichia coli; conditions: for total bacterial CFUs in the bladder: mice, 6 hpi
Description: The efficacy of in vivo mannoside treatment was evaluated after orally dosing animals with 50 mg/kg of mannosides ZFH-4269 (FIG. 1A), ZFH-5254 (FIG. 1B) and ZFH-5240 (FIG. 1C) or DMSO or PBS 30 min prior to infecting with UTI89. At 6 hours post-infection (hpi) the bladders were removed and total bacterial CFUs were quantitated. […] Next, analogs of 254 were evaluated in the same mouse model of urinary tract infection. Animals were orally dosed with 25 mg/kg of mannosides ZFH-4269 (FIG. 2A), 1CJ68 (FIG. 2B) and 1CJ70 (FIG. 2C) in 10% cyclodextrin or 10% cyclodextrin 30 min prior to infecting with UT189.
The efficacy of in vivo mannoside treatment was evaluated after orally dosing animals with 25 mg/kg of mannosides ZFH269, Prodrug FIM-4269, ZFH-5254, and ZFH-5240 in 10% cyclodextrin or 10% cyclodextrin 30 min prior to infecting with UTI89. At 6 hours post-infection (hpi) the bladders were removed and total bacterial CFUs were quantitated. […] Next, several different prodrugs were evaluated in the same mouse model of urinary tract infection. Animals were orally dosed with 25 mg/kg of mannosides ZFH-4269, prodrug FIM-1233 (FIG. 8B), prodrug FIM-6123 (FIG. 8C) and prodrug 269 in 10% cyclodextrin or 10% cyclodextrin 30 min prior to infecting with UT189.
(§1) The FimH-mannose interaction was further investigated in an effort to develop potential ligand-based antagonists of UTIs. […] The non-reducing Man4 anchors into the mannose-binding pocket while the GlcNAc folds over Thr51 allowing specific interactions with a hydrophobic tyrosine gate. Heptyl mannoside mimics the GlcNAc tail of oligomannose-3 and extends it further to increase interactions outside the binding pocket resulting in high affinity binding (Kd=5 nM). Based on the high affinity of heptyl mannose for FimH, the ability of heptyl mannose to reduce bacterial infection in our mouse model of UTI was tested. First, biofilm formation as a surrogate for IBCs formed in the bladder was evaluated. […] Thus, UPEC strain UTI89 was incubated with heptyl mannose prior to inoculation into the bladders of mice.
Bacteria were grown under type 1 pili-inducing conditions (2×24 h at 37° C. statically in LB). The bacteria were harvested and resuspended to an OD600 of 0.5 in PBS. Eight-week-old C3H/HeN (Harlan) female mice were anesthetized by inhalation of isoflurane and infected via transurethral catheterization with […] of the bacterial suspension, resulting in 1-2×10^7 inoculum. At 6 hpi, mice were sacrificed by cervical dislocation under anesthesia and the bladders were immediately harvested and processed as described below. All animal studies using mice were approved by the Animal Studies Committee of Washington University (Animal Protocol Number 20100002).
Mannoside ZFH-2056 was administered either IP (5 mg/kg) or orally (100 mg/kg) 30 min prior to inoculation with UTI89. To enumerate the bacteria present, mice were sacrificed at 6 hpi and bladders were aseptically removed and homogenized in 1 ml PBS, serially diluted and plated onto LB agar plates. CFU was enumerated after 16 h of growth at 37° C.

[4] = Mouse oral PK, mannoside concentration in urine; type: in vivo; conditions: mice, 50 mg/kg oral; for detectability in urine: samples at 1, 3, 6 and 8 hours
Description: Compounds ZFH-4269 (FIG. 6A), ZFH-5254 (FIG. 6B), ZFH5240 (FIG. 6C), and a Prodrug were dosed at 50 mg/kg and plasma and urine samples were taken at 1, 3, 6 and 8 hours after dosing. […] Taken together, the high oral bioavailability and in vivo efficacy observed in animal studies support mannosides as promising therapeutic candidates for UTI treatment/prevention.
For intraperitoneal dosing, 50 μl of a 2 mg/ml (5 mg/kg) or 4 mg/ml (10 mg/kg) solution of ZFH-2056 in PBS was injected into the peritoneal cavity of the mouse. For oral dosing, 100 μl of a 20 mg/ml (100 mg/kg) solution of ZFH-2056 in 8% DMSO was inoculated with a gavage needle into the mouse stomach. Urine was collected at 30 min, 1, 2, 3, 4, 6, and 8 h post-treatment. An equal volume of 10 μM internal standard (ZFH-2050) was added to the urine. Mannosides were extracted from the urine by loading on C18 columns (100 mg, Waters), washing with 30% methanol, and eluting with 60% methanol. Vacuum-concentrated eluates were analyzed using liquid chromatography-mass spectrometry system30 with a lower heated capillary temperature of 190° C. and a gradiert as follows: Solvent B (80% acetonitrile in 0.1% formic acid) was held constant at 5% for 5 minutes, increased to 44% B by 45 minutes, and then to a 95% B by 65 minutes. SRM mode quantification was performed with collision gas energy of 30% for the following MS/MS transitions (precursor m/z/product m/z): compound ZFH-2056, 447/285; compound ZFH-2050, 390/228. Absolute quantification was achieved by comparison to a calibration curve.

UPEC biofilm formation = assay: Biofilm assay; type: cell-based, Escherichia coli; conditions: 1 mM
Description: as §1
UTI89 was grown in LB broth in wells of PVC microtiter plates at 23° C. in the presence of individual mannosides at varying concentrations. After 48 h of growth, wells were rinsed with water and stained with crystal violet for quantification as described. For biofilm disruption activity in PVC plates, UTI89 was grown in LB broth in wells of PVC microtiter plates at 23° C. After 24 h of growth, mannoside was added and biofilms were grown for an additional 16 h. Wells were then rinsed, stained with crystal violet and quantified. […]

FimH [5] = target: T1, FimH; assay: Binding affinity to FimH; set-up: species or system E. coli
Description: as §1

PBC-1 = assay: Growth curve / MIC in TMP-SMZ, PBC-1; type: cell-based; conditions: Escherichia coli; PBC-1, growth curves in TMP-SMZ; read-out: Minimum Inhibition Concentration (MIC)
Description: (§2) Mice were IP treated with 6 30 min prior to inoculation with bacteria and compared to a control group of untreated animals. After inoculation with UTI89 or PBC-1, bacterial CFUs were quantified at 6 hpi.
Mannoside ZFH-2056 was added at 100 μM. Growth curves were performed in a 96-well plate at 37° C. with A600 readings taken every 30 min for 8 h.

UTI89 [6] = assay: microbe, parasite or virus in culture; conditions: Escherichia coli
[7] = mice, after 3 days of 54 μg/ml TMP and 270 μg/ml SMZ in drinking water
Description: as §2
Water was changed daily for 3 days prior to inoculation with UTI89.

UTI89 [8] = assay: UTI89 biofilm formation in urine under flow; type: cell-based, Escherichia coli; conditions: 1% in urine under flow
Excerpt: To investigate the potential therapeutic effects of mannosides on CAUTI, we first assessed the inhibitory effects of methyl-a-D-mannopyranoside (methyl mannose), on UTI89 biofilm formation in urine under flow.

[9] = 25 mg/kg oral in 10% cyclodextrin 30 min prior to infecting with UTI89

SMILES: CNC(=O)c1cccc(-c2ccc([C@@H](O)C3OC(CO)C(O)C(O)C3O)c(C)c2)c1 (single isomer, unassigned) [Example 18A]
- time plasma concentration remained above the limit of detection ([1]; IV 3 mg/kg): 2.5 h
- mean plasma concentration / PK after IV dose ([1]; IV 3 mg/kg, listed as FIM-5240, 3 mg/kg): the highest relative to the other 4 mannosides; also recorded: best PK
- pharmacokinetics after PO dose ([1]; PO 10 mg/kg): best pharmacokinetics relative to the other mannosides
- time at which plasma concentration fell below the limit of detection ([1]; PO 10 mg/kg): 2 h
- HAI Titer EC>90 (FimH [2]): 0.031 µM
- total bacterial CFUs in the bladder (UTI89 [3]; [9]): drop in bacterial counts
- total bacterial CFUs in the bladder (UTI89 [3]; 50 mg/kg oral 30 min prior to infecting with UTI89, vs DMSO or PBS, listed as 240, 50 mg/kg): reduced bacterial titers in the bladder relative to DMSO and PBS
- total bacterial CFUs in the bladder (UTI89 [3]; 50 mg/kg oral 30 min prior to infecting with UTI89, vs DMSO or PBS, listed as ZFH-5240, 50 mg/kg): drop in bacterial counts
- detectability in urine [4]: detectable in the urine out to 8 hours post-treatment
- level of concentration in the urine ([4]; within a 6-hour period): consistently maintained a high level of concentration in the urine

SMILES: Cc1cc(-c2ccc3cc[nH]c(=O)c3c2)ccc1O[C@H]1O[C@@H](CO)[C@@H](O)[C@H](O)[C@H]1O [Example 7, 7-[3-methyl-4-[(2R,3R,4S,5S,6S)-3,4,5-trihydroxy-6-(hydroxymethyl)tetrahydropyran-2-yl]oxy-phenyl]-2H-isoquinolin-1-one]
- HAI Titer EC>90 (FimH [2]): 0.030 µM
- total bacterial CFUs in the bladder (UTI89 [3]; [9]): drop in bacterial counts
- total bacterial CFUs in the bladder (UTI89 [3]; 50 mg/kg oral 30 min prior to infecting with UTI89, vs DMSO or PBS, listed as 254, 50 mg/kg): reduced bacterial titers in the bladder relative to DMSO and PBS
- total bacterial CFUs in the bladder (UTI89 [3]; 50 mg/kg oral 30 min prior to infecting with UTI89, vs DMSO or PBS, listed as ZFH-5254, 50 mg/kg): drop in bacterial counts
- detectability in urine [4]: detectable in the urine out to 8 hours post-treatment

SMILES: CCCCCCCO[C@H]1O[C@H](CO)[C@@H](O)[C@H](O)[C@@H]1O [Heptyl mannoside]
- UPEC biofilm formation in vitro (UPEC biofilm formation): inhibited UPEC biofilm formation
- virulence in mouse model of UTI (UTI89 [3]; UTI89 incubated with 5 mM compound prior to inoculation into bladders, 6 hours post-infection): significant attenuation of virulence
- Kd (FimH [5]): 5 nM

SMILES: Cc1cc(NS(=O)(=O)c2ccc(N)cc2)no1 [SMZ, Sulfamethoxazole]
- MIC (PBC-1): 1280 µg/mL (≈ 5050 µM)
- MIC (UTI89 [6]): 0.25 µg/mL (≈ 0.987 µM)

SMILES: COc1cc(Cc2cnc(N)nc2N)cc(OC)c1OC [TMP, Trimethoprim]
- MIC (PBC-1): 256 µg/mL (≈ 882 µM)
- MIC (UTI89 [6]): 0.05 µg/mL (≈ 0.172 µM)
- TMP concentration in urine [7]: 9.95 ± 4.36 mg/mL

SMILES: CNC(=O)c1cccc(-c2ccc(O[C@H]3O[C@@H](CO)[C@@H](O)[C@H](O)[C@H]3O)c(C)c2)c1 [ZFH-4269, N-methyl-3-[3-methyl-4-[(2R,3R,4S,5S,6S)-3,4,5-trihydroxy-6-(hydroxymethyl)tetrahydropyran-2-yl]oxy-phenyl]benzamide]
- bladder titers (UTI89 [3]; acute UTI model (FIG. 27D)): significantly reduce bladder titers
- total bacterial CFUs in the bladder (UTI89 [3]; 25 mg/kg oral in 10% cyclodextrin 30 min prior to infecting with UTI89, 25 mg/kg): drop in bacterial counts
- total bacterial CFUs in the bladder (UTI89 [3]; 25 mg/kg oral in 10% cyclodextrin 30 min prior to infecting with UTI89, listed as ZFH269, 25 mg/kg): drop in bacterial counts; also recorded: most efficiently reduced bacterial titers in the bladder; also recorded: significantly reduced bacterial titers in the bladder
- total bacterial CFUs in the bladder (UTI89 [3]; 50 mg/kg oral 30 min prior to infecting with UTI89, vs DMSO or PBS, 50 mg/kg): drop in bacterial counts
- total bacterial CFUs in the bladder (UTI89 [3]; 50 mg/kg oral 30 min prior to infecting with UTI89, vs DMSO or PBS, listed as 269, 50 mg/kg): reduced bacterial titers in the bladder relative to DMSO and PBS
- detectability in urine [4]: detectable in the urine out to 8 hours post-treatment

SMILES: CO[C@H]1O[C@H](CO)[C@@H](O)[C@H](O)[C@@H]1O [methyl mannose, methyl-a-D-mannopyranoside]
- biofilm-adherent cells (UTI89 [8]; p=0.0012 vs untreated): significantly reduced
- biofilm biomass (UTI89 [8]; p=0.0022 vs untreated): significantly reduced
